Reference: PubChem BioAssay AID248 (DTP/NCI, 2004)
Several values for one entry are separate records, joined by “and”; a condition that tells them apart may be missing. Identical values can stand only once. Inconclusive results and toxic doses are left out. Cut-off read from the data, not from the text of the source: active = T/C of 150% or more; inactive = T/C below 125%.

System: L1210 leukemia ip in BDF1 mice, survival T/C
Experiment: NCI In Vivo Anticancer Drug Screen. Data for tumor model L1210 Leukemia (intraperitoneal) in B6D2F1 (BDF1) mice
Conditions: endpoint: mean survival time, higher = longer survival
How it was run: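 Read-out is survival time, reported as the treated-group measurement over the vehicle-control measurement.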

[1] = dose: 200.0 mg/kg/injection, schedule: Q04DX002 (ip), vehicle: saline

Measured: T/C

COc1cc(-c2ccc(Nc3ccccc3C(=O)O)c(OC)c2)ccc1Nc1ccccc1C(=O)O
inactive: dose: 6.0 mg/kg/injection, schedule: Q01DX006 (iv), vehicle: carboxymethylcellulose (CMC) 111 % of control | dose: 12.0 mg/kg/injection, schedule: Q01DX006 (iv), vehicle: carboxymethylcellulose (CMC) 106 % of control | dose: 13.0 mg/kg/injection, schedule: Q01DX Z (ip), vehicle: saline 122 % of control | dose: 20.0 mg/kg/injection, schedule: Q01DX Z (ip), vehicle: saline 114 % of control | dose: 25.0 mg/kg/injection, schedule: Q01DX006 (iv), vehicle: carboxymethylcellulose (CMC) 107 % of control | dose: 25.0 mg/kg/injection, schedule: Q01DX Z (ip), vehicle: carboxymethylcellulose (CMC) 103 % of control | dose: 29.0 mg/kg/injection, schedule: Q01DX Z (ip), vehicle: saline 116 % of control | dose: 37.5 mg/kg/injection, schedule: Q01DX006 (iv), vehicle: carboxymethylcellulose (CMC) 108 % of control | dose: 44.0 mg/kg/injection, schedule: Q01DX Z (ip), vehicle: carboxymethylcellulose (CMC) 104 % of control and 112 % of control | dose: 44.0 mg/kg/injection, schedule: Q01DX Z (ip), vehicle: methylcellulose (MC) 100 % of control | dose: 44.0 mg/kg/injection, schedule: Q01DX Z (ip), vehicle: saline 117 % of control and 122 % of control | dose: 45.0 mg/kg/injection, schedule: Q01DX Z (ip), vehicle: carboxymethylcellulose (CMC) 104 % of control | dose: 50.0 mg/kg/injection, schedule: Q01DX006 (iv), vehicle: carboxymethylcellulose (CMC) 106 % of control | dose: 50.0 mg/kg/injection, schedule: Q01DX015 (ip), vehicle: saline 98 % of control | dose: 50.0 mg/kg/injection, schedule: Q01DX Z (ip), vehicle: carboxymethylcellulose (CMC) 97 % of control and 101 % of control | dose: 64.0 mg/kg/injection, schedule: Q01DX Z (ip), vehicle: carboxymethylcellulose (CMC) 102 % of control | dose: 66.0 mg/kg/injection, schedule: Q01DX Z (ip), vehicle: carboxymethylcellulose (CMC) 110 % of control | dose: 66.0 mg/kg/injection, schedule: Q01DX Z (ip), vehicle: methylcellulose (MC) 105 % of control | dose: 66.0 mg/kg/injection, schedule: Q01DX Z (ip), vehicle: saline 109 % of control and 114 % of control | dose: 98.0 mg/kg/injection, schedule: Q01DX Z (ip), vehicle: methylcellulose (MC) 98 % of control | dose: 98.0 mg/kg/injection, schedule: Q01DX Z (ip), vehicle: saline 97 % of control | dose: 99.0 mg/kg/injection, schedule: Q01DX Z (ip), vehicle: carboxymethylcellulose (CMC) 100 % of control | dose: 100.0 mg/kg/injection, schedule: Q01DX015 (ip), vehicle: saline 96 % of control | dose: 100.0 mg/kg/injection, schedule: Q01DX Z (ip), vehicle: saline 119 % of control | dose: 147.0 mg/kg/injection, schedule: Q01DX Z (ip), vehicle: methylcellulose (MC) 110 % of control | dose: 147.0 mg/kg/injection, schedule: Q01DX Z (ip), vehicle: saline 100 % of control | dose: 150.0 mg/kg/injection, schedule: Q01DX Z (ip), vehicle: carboxymethylcellulose (CMC) 95 % of control | dose: 200.0 mg/kg/injection, schedule: Q01DX015 (ip), vehicle: saline 101 % of control | dose: 200.0 mg/kg/injection, schedule: Q01DX Z (ip), vehicle: carboxymethylcellulose (CMC) 103 % of control and 106 % of control | dose: 200.0 mg/kg/injection, schedule: Q01DX Z (oral), vehicle: carboxymethylcellulose (CMC) 103 % of control | dose: 220.0 mg/kg/injection, schedule: Q01DX Z (ip), vehicle: methylcellulose (MC) 98 % of control | dose: 220.0 mg/kg/injection, schedule: Q01DX Z (ip), vehicle: saline 108 % of control | dose: 334.0 mg/kg/injection, schedule: Q01DX Z (ip), vehicle: saline 120 % of control | dose: 400.0 mg/kg/injection, schedule: Q01DX015 (ip), vehicle: saline 96 % of control | dose: 400.0 mg/kg/injection, schedule: Q01DX Z (oral), vehicle: carboxymethylcellulose (CMC) 103 % of control | dose: 800.0 mg/kg/injection, schedule: Q01DX Z (oral), vehicle: carboxymethylcellulose (CMC) 95 % of control | dose: 1600.0 mg/kg/injection, schedule: Q01DX Z (oral), vehicle: carboxymethylcellulose (CMC) 111 % of control

CCCCCCCCNP(=S)(NCCCCCCCC)NCCCCCCCC
inactive: dose: 50.0 mg/kg/injection, schedule: Q01DX001 (ip), vehicle: other 105 % of control | dose: 100.0 mg/kg/injection, schedule: Q01DX001 (ip), vehicle: other 96 % of control | dose: 200.0 mg/kg/injection, schedule: Q01DX001 (ip), vehicle: other 96 % of control | dose: 400.0 mg/kg/injection, schedule: Q01DX001 (ip), vehicle: other 94 % of control

Clc1nc(I)c(Cl)c(I)n1
inactive: dose: 6.25 mg/kg/injection, schedule: Q01DX009 (ip), vehicle: other 119 % of control | dose: 12.5 mg/kg/injection, schedule: Q01DX009 (ip), vehicle: other 101 % of control | dose: 25.0 mg/kg/injection, schedule: Q01DX009 (ip), vehicle: other 94 % of control

CNCCN(C)CCN(C)Cc1ccc(OC)cc1
inactive: dose: 25.0 mg/kg/injection, schedule: Q01DX009 (ip), vehicle: water 105 % of control | dose: 50.0 mg/kg/injection, schedule: Q01DX009 (ip), vehicle: water 102 % of control | dose: 100.0 mg/kg/injection, schedule: Q01DX009 (ip), vehicle: water 100 % of control | dose: 200.0 mg/kg/injection, schedule: Q01DX009 (ip), vehicle: water 107 % of control

CN(C=O)c1ccccc1
inactive: dose: 100.0 mg/kg/injection, schedule: Q04DX002 (ip), vehicle: saline 106 % of control | [1] 102 % of control | dose: 400.0 mg/kg/injection, schedule: Q04DX002 (ip), vehicle: saline 95 % of control

CC(C)C(CN)(CCCCN1CCOCC1)c1cccc2ccccc12 (stereo not drawn)
inactive: dose: 100.0 mg/kg/injection, schedule: Q04DX003 (ip), vehicle: saline with Tween-80 100 % of control | dose: 200.0 mg/kg/injection, schedule: Q04DX003 (ip), vehicle: saline with Tween-80 95 % of control | dose: 400.0 mg/kg/injection, schedule: Q04DX003 (ip), vehicle: saline with Tween-80 95 % of control

O=C(O)CSc1cc(-c2ccc(Cl)cc2)s[s+]1
inactive: dose: 3.12 mg/kg/injection, schedule: Q01DX009 (ip), vehicle: water 98 % of control | dose: 6.25 mg/kg/injection, schedule: Q01DX009 (ip), vehicle: water 97 % of control | dose: 12.5 mg/kg/injection, schedule: Q01DX009 (ip), vehicle: water 96 % of control | dose: 12.5 mg/kg/injection, schedule: Q04DX003 (ip), vehicle: water 94 % of control | dose: 25.0 mg/kg/injection, schedule: Q04DX003 (ip), vehicle: water 93 % of control | dose: 50.0 mg/kg/injection, schedule: Q04DX003 (ip), vehicle: water 86 % of control

C/C=C/C=C/C=N/N=C(N)N
inactive: dose: 15.0 mg/kg/injection, schedule: Q01DX Z (ip), vehicle: carboxymethylcellulose (CMC) 97 % of control | dose: 30.0 mg/kg/injection, schedule: Q01DX Z (oral), vehicle: carboxymethylcellulose (CMC) 109 % of control | dose: 60.0 mg/kg/injection, schedule: Q01DX Z (oral), vehicle: carboxymethylcellulose (CMC) 103 % of control | dose: 120.0 mg/kg/injection, schedule: Q01DX Z (oral), vehicle: carboxymethylcellulose (CMC) 103 % of control and 112 % of control | dose: 240.0 mg/kg/injection, schedule: Q01DX Z (oral), vehicle: carboxymethylcellulose (CMC) 102 % of control and 107 % of control

NC(=O)Cc1ccc(O)cc1
inactive: dose: 12.5 mg/kg/injection, schedule: Q04DX002 (ip), vehicle: saline with Tween-80 98 % of control | dose: 25.0 mg/kg/injection, schedule: Q04DX002 (ip), vehicle: saline with Tween-80 107 % of control | dose: 50.0 mg/kg/injection, schedule: Q04DX002 (ip), vehicle: saline with Tween-80 93 % of control and 105 % of control | dose: 50.0 mg/kg/injection, schedule: Q04DX002 (ip), vehicle: saline 113 % of control | dose: 100.0 mg/kg/injection, schedule: Q04DX002 (ip), vehicle: saline with Tween-80 98 % of control and 101 % of control | dose: 200.0 mg/kg/injection, schedule: Q04DX002 (ip), vehicle: saline with Tween-80 96 % of control and 98 % of control | [1] 113 % of control | dose: 400.0 mg/kg/injection, schedule: Q04DX002 (ip), vehicle: saline with Tween-80 101 % of control
